Measurements: patent US12509430B2, “Inhibitors of nicotinamide N-methyltransferase, compositions and uses thereof” (President and Fellows of Harvard College, priority 2020, dated 2025)
Where two headings read alike, the source gives them in different places.

Key:
[1] = target: T1, recombinant human NNMT (Homo sapiens, UniProt P40261); assay: in vitro NNMT enzyme inhibition assay (Promega MTase-Glo Methyltransferase Assay); type: biochemical
T1 sequence (P40261 1-264): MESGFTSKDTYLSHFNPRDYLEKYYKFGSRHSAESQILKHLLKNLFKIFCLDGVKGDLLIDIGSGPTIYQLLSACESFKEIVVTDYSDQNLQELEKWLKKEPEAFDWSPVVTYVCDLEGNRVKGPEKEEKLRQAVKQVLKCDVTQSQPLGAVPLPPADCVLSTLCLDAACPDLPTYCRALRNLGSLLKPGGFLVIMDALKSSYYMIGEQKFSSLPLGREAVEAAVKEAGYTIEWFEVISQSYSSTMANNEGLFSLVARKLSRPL
Method: NNMT biochemical activity for was evaluated using the Promega Mtase-Glo Methyltransferase Assay kit. Assays were performed in a white, flat-bottomed 96 well plate. […] Reactions were performed for 20 minutes at room temperature. MTase-Glo reagent and MTase-Glo detection solution were added according to manufacturer's instructions and luminescence signal measured with a SpectraMax i3 plate reader and data analyzed with GraphPad Prism version 8. FIG. 14 depicts a visual summary of the Promega MTase-Glo Methyltransferase assay used to assess biochemical activity of novel inhibitors.

[2] = target: T2, NNMT in K562 cells (Homo sapiens, UniProt P40261); assay: Cellular inhibition of NNMT in K562 cells by 1-MNA quantification; type: cell-based
T2 construct: In K562 cells, which express NNMT; host or cells: K562
T2 sequence (P40261 1-264): T1 sequence (P40261 1-264)
Method: Cellular activity was measured in K562 (ATCC) cells via measuring (1-methyl nicotinamide) 1-MNA levels after compound incubation at varying concentrations overnight. […] Cells were collected by pipetting and extracted with 200 ul acetonitrile containing internal deuterated standard 10 ng/ml d4-1-MNA. […] The mobile phase A was 2.5 mM ammonium formate in water, and mobile phase B was methanol with 0.1% formic acid, delivered at 0.25 mL/min. The capillary voltage was set to 2400V and the nozzle at 300V. The drying gas temperature was 240° C., the drying gas flow rate was 4 L/min, and the nebulizer pressure was 40 psi. The mass spectrometer was run in multiple reaction monitoring mode.
(§1) All cells were cultured at 37° C. in a humidified incubator buffered with 5% CO2. K562 cells were maintained in RPMI supplemented with 10% fetal bovine serum (FBS). Ovarian CAFs were maintained in MSC-Gro Vitroplus III for proliferation and in DMEM containing 10 μM methionine with 10% dialyzed FBS for experiments. K562 were purchased from ATCC. Ovarian CAFs were purchased from Neuromics.

[3] = target: T3, NNMT in ovarian CAFs (Homo sapiens, UniProt P40261); assay: 1-MNA quantification in ovarian cancer associated fibroblasts; type: cell-based; conditions: 1 μM, six day continuous treatment
T3 construct: host or cells: ovarian cancer-associated fibroblasts
T3 sequence (P40261 1-264): T1 sequence (P40261 1-264)
Method: as §1
1-MNA quantification in ovarian CAFs (Neuromics) was performed similarly as in K562 cells, except cells were scraped off the plate in PBS buffer after a six day continuous treatment with compound and then extracted.

[4] = test system: Ovarian Cancer Associated Fibroblasts (CAF) markers; assay: CAF markers in ovarian CAFs (gel electrophoresis); type: cell-based, human; conditions: incubation with compound, FIG. 5
Method: as §1

[5] = Microsomal stability, human microsomes with NADPH (Phase I); type: in vitro ADME; conditions: human liver microsomes; for CLhep predicted at 2 μM: read-out: Predicted hepatic Clint; for CLint scaled at 2 μM: read-out: Scaled-up CLint
Method: (§2) The metabolism of Compounds 4 and 13 was evaluated using a microsomal stability assay. Briefly, a master solution was prepared according to Tables 5 and 6.
(§3) The final concentrations of NADPH was 1 mM. […] Samples with NADPH were prepared in duplicate. Negative controls were prepared in singlet.
(§4) Verapamil was used as positive control in this study. The final concentration of test compound or control compound was 2 μM.
(§5) Aliquots of 50 μL were taken from the reaction solution at 0, 15, 30, 45 and 60 minutes.

[6] = Microsomal stability, mouse microsomes with NADPH (Phase I); type: in vitro ADME; conditions: mouse liver microsomes; for CLhep predicted at 2 μM: read-out: Predicted hepatic Clint; for CLint scaled at 2 μM: read-out: Scaled-up CLint
Method: as §2, §3, §4, §5

[7] = Microsomal stability, human microsomes with NADPH and UDPGA (Phase II); type: in vitro ADME; conditions: human liver microsomes, NADPH & UDPGA
Method: as §2
(§6) For the assay with NADPH and UDPGA (Phase II), 40 μL of 10 mM NADPH solution and 40 μL of 20 mM UDPGA solution were added to each well. The final concentrations of NADPH and UDPGA were 1 mM and 2 mM. […] The negative control samples were prepared by replacing cofactors (NADPH and UDPGA) solution with 80 μL of ultra-pure H2O. Samples with cofactors were prepared in duplicate. Negative controls were prepared in singlet.
(§7) The reaction was started with the addition of 2 μL of 400 μM control compound or test compound solutions. Diclofenac was used as positive control in this study. The final concentration of test compound or control compound was 2 μM.
as §5

[8] = Microsomal stability, mouse microsomes with NADPH and UDPGA (Phase II); type: in vitro ADME; conditions: mouse liver microsomes, NADPH & UDPGA
Method: as §2, §6, §7, §5

[9] = test system: 1-Methylnicotinamide (1-MNA); assay: In vivo pharmacodynamics, plasma 1-MNA in female C57B16/N mice after inhibitor dosing; design: species or system mouse
Method: 1-Methylnicotinamide (1-MNA) concentrations were also determined.
Then the samples were vortexed for 30 s.

[10] = In vivo pharmacokinetics, plasma concentration of inhibitor in female C57B16/N mice
Description: Doses were freshly prepared on the day of dosing.

[11] = K562, read-out: Cellular Activity IC50 (K562)
[12] = read-out: Predicted hepatic Clint
[13] = plasma 1-MNA after inhibitor IV 1 mg/kg
[14] = plasma 1-MNA after inhibitor PO 10 mg/kg
[15] = plasma 1-MNA after inhibitor PO 50 mg/kg
[16] = IV 1 mg/kg, female C57B16/N mice
[17] = PO 10 mg/kg, female C57B16/N mice, plasma
[18] = PO 50 mg/kg, female C57B16/N mice, plasma
[19] = female, C57B16/N, mouse, plasma, iv, 1 mg/kg
[20] = female, C57B16/N, mouse, plasma, po, 10 mg/kg
[21] = female, C57B16/N, mouse, plasma, po, 50 mg/kg

CNc1cc(C)c(C(N)=O)cn1 [Compound 4, 4-methyl-6-(methylamino) nicotinamide]
IC50 ([1]; 40 nM recombinant human NNMT, 8 μM nicotinamide, 20 min, read-out: IC50, in vitro NNMT enzyme inhibition assay): 244 nM
IC50 ([1]; read-out: in vitro hNNMT IC50): 240 nM
IC50 [2, 11]: 16 nM
IC50 ([2]; K562 cells, 24 h, 1-MNA quantification, read-out: IC50, NNMT inhibition in K562 cells): 15 nM
NNMT inhibition in ovarian CAFs (1-MNA quantification) [3]: significantly inhibited NNMT
CAF markers in ovarian CAFs [4]: reduction in CAF markers
microsomal CLint at 2 μM [5]: < 5.42 µL/min/mg
half-life at 2 μM [5]: > 256 min
Remaining (%) at 60 min [5]: 94.54%
CLhep predicted at 2 μM [5]: < 5.12 mL/min/kg
CLint scaled at 2 μM [5]: < 6.79 mL/min/kg
microsomal CLint at 2 μM [6]: < 5.42 µL/min/mg
half-life at 2 μM [6]: > 256 min
Remaining (%) at 60 min [6]: 85.32%
CLhep predicted at 2 μM [6]: < 18.8 mL/min/kg
CLint scaled at 2 μM [6]: < 23.7 mL/min/kg
microsomal CLint at 2 μM [7]: < 5.42 µL/min/mg
half-life at 2 μM ([7]; 2 μM): > 256 min
Remaining (%) at 60 min ([7]; 60 min): 96.85%
CLhep predicted at 2 μM [7, 12]: < 5.12 mL/min/kg
CLint scaled at 2 μM ([7]; read-out: Scaled-up CLint): < 6.79 mL/min/kg
microsomal CLint at 2 μM [8]: < 5.42 µL/min/mg
half-life at 2 μM ([8]; 2 μM): > 256 min
Remaining (%) at 60 min ([8]; 60 min): 85.18%
CLhep predicted at 2 μM [8, 12]: < 18.8 mL/min/kg
CLint scaled at 2 μM ([8]; read-out: Scaled-up CLint): < 23.7 mL/min/kg
AUClast of 1-MNA [9, 13]: 792 ng·h/mL
Cmax of 1-MNA [9, 13]: 39.3 ng/mL
Tmax of 1-MNA [9, 13]: 16.7 h
AUClast of 1-MNA [9, 14]: 761 ng·h/mL
Cmax of 1-MNA [9, 14]: 42.4 ng/mL
Tmax of 1-MNA [9, 14]: 18.7 h
AUClast of 1-MNA [9, 15]: 678 ng·h/mL
Cmax of 1-MNA [9, 15]: 48.8 ng/mL
Tmax of 1-MNA [9, 15]: 24.0 h
Cl_obs [10, 16]: 62.8 mL/min/kg
Vss_obs [10, 16]: 0.786 L/kg
AUC_%Extrap_obs ([10]; IV 1 mg/kg, female C57B16/N mice, plasma): 1.63%
F_last ([10]; PO 10 mg/kg, female C57B16/N mice): 101%
AUC_%Extrap_obs [10, 17]: 0.194%
T1/2 [10, 17]: 1.11 h
F_last ([10]; PO 50 mg/kg, female C57B16/N mice): 222%
AUC_%Extrap_obs [10, 18]: 0.319%
AUClast [10, 18]: 30747 ng·h/mL
Cmax [10, 18]: 38900 ng/mL
T1/2 [10, 18]: 1.79 h
AUC(0-inf) [10, 19]: 278 ng·h/mL
AUC(0-t) [10, 19]: 273 ng·h/mL
C0 [10, 19]: 1190 ng/mL
MRT inf [10, 19]: 13 min
half-life [10, 19]: 10.4 min
AUC(0-inf) [10, 20]: 2810 ng·h/mL
AUC(0-t) [10, 20]: 2800 ng·h/mL
Cmax [10, 20]: 4000 ng/mL
MRT inf [10, 20]: 38.1 min
AUC(0-inf) [10, 21]: 30800 ng·h/mL
MRT inf [10, 21]: 41.7 min

CNc1cc(Cl)c(C(N)=O)cn1 [Compound 13]
IC50 ([1]; read-out: in vitro hNNMT IC50): 673 nM
IC50 [2, 11]: 106 nM
microsomal CLint at 2 μM [5]: < 5.42 µL/min/mg
half-life at 2 μM [5]: > 256 min
Remaining (%) at 60 min [5]: 110.09%
CLhep predicted at 2 μM [5]: < 5.12 mL/min/kg
CLint scaled at 2 μM [5]: < 6.79 mL/min/kg
microsomal CLint at 2 μM [6]: < 5.42 µL/min/mg
half-life at 2 μM [6]: > 256 min
Remaining (%) at 60 min [6]: 85.85%
CLhep predicted at 2 μM [6]: < 18.8 mL/min/kg
CLint scaled at 2 μM [6]: < 23.7 mL/min/kg
